Laboratory results published in patent US6214805A, “RNase L activators and antisense oligonucleotides effective to treat RSV infections” (priority 1997, dated 2001).
Read-outs that look alike come from different tables or passages of the source.

Legend:
A2 strain RSV = assay: CPE inhibition assay in MA-104 cells; assay type: cell-based, Respiratory syncytial virus
Experimental: (§1) The CPE inhibition assay used in this study was performed as described by Sidwell and Huffman (Sidwell et al., 1971, Appl. Microbiol. 22:7979-7801) with slight modifications. Varying concentrations of test compounds were added to each plate containing near confluent cell monolayers (1×10^5 cells/well) followed immediately by the addition of virus at a multiplicity of infection (MOI)=0.01, and then incubated at 37° C. On the following day, the medium from each plate was removed and fresh compound added. The assay was stopped at the end of the sixth day when the virus cytopathic effect in the virus infected, untreated control cells affected all cells. All compounds were assayed for virus inhibition in quadruplicate and for cytotoxicity in duplicate. For each compound, two wells were set aside as uninfected, untreated cell controls per test and four wells per test received virus only and represented controls for virus replication. […] For all CPE-based assays, the 50% effective concentration (EC50) was calculated by regression analysis using the means of the CPE ratings at each concentration of compound.
EC50 Concentration for 50% inhibition of virus replication (microM)
(§2) Determined in MA-104 cells, A2 strain RSV

MA-104 cells = assay: Cytotoxicity graded by morphological change in MA-104 cells; assay type: cell-based, African green monkey
Experimental: (§3) Embryonic African green monkey kidney cells (MA-104) were obtained from BioWhittaker, Inc. (Walkersville, Md.). HEp-2 cells were propagated from a human epidermoid carcinoma of the larynx (American Type Culture Collection, ATCC; Rockville, Md.). The cells were grown in minimal essential medium. (MEM, Gibco-BRL, Gaitherburg, Md.) supplemented with 0.1% NaHCO3 and 10% fetal bovine serum (FBS, Hyclone Laboratories, Logan Utah.). When performing antiviral assays, serum was reduced to 2% and 50 μg/ml gentamicin (Sigma Chemical Company, St. Louis, Mo.) was added to the medium.
(§4) Morphological changes due to compound cytotoxicity were graded on a scale of 0-5; grade 5 was defined as 100% cytotoxicity. The 50% cytotoxic dose (IC50 was calculated by regression analysis. A selective index (S.I.) was calculated for each compound [S.I.=(IC50)/(EC50 ].
IC50 Conc. for 50% cytotoxicity grade by morphological change (microM)
as §2

RSV strain A2 [1] = assay: Virus yield reduction assay in HEp-2 cells; assay type: cell-based, Respiratory syncytial virus; settings: compound added twice daily
Experimental: EC50 & EC90 : concentration required to reduce virus (RSV strain
Both compounds were added to the cells twice daily.

RSV strain A2 [2] = assay: CPE inhibition assay in HEp-2 cells; assay type: cell-based, Respiratory syncytial virus; settings: Table 10, CPE; B.I.D. 3 days; HEp2; read-out: EC50
Experimental: as §1, with “On the following day, the medium from each plate was removed and fresh compound added. The assay was stopped at the end of the sixth day when the virus cytopathic effect in the virus infected, untreated control cells affected all cells.” left out

Hep-2 Cells [3] = assay: Cytotoxicity by morphological changes in HEp-2 cells (CPE inhibition assay); assay type: cell-based, human
Experimental: as §3, §4

RSV strain A2 [4] = assay: Neutral red uptake assay of CPE inhibition in HEp-2 cells; assay type: cell-based, Respiratory syncytial virus; settings: read-out: EC50
Experimental: (§5) This assay was performed by a modified method as described by Cavenaugh et al. (Cavenaugh et al. 1990, Invest. New Drugs 8:347-354). Briefly, medium was removed from each well of a plate scored for CPE from a CPE inhibition assay, 0.2 ml of neutral red (0.034% in PSS) was added to each of the wells of that plate and the plate incubated for 2 hr at 37° C. in the dark. The neutral red solution was removed from the wells and the wells rinsed twice with PBS (pH 7.4). Equal volumes (0.1 ml) of absolute ethanol and Sorenson citrate buffer (0.1 M sodium citrate, 0.1 M HCI, pH 4.2) were mixed together and added to each well. Plates were incubated in the dark for 30 min. at room temperature to solubilize the dye. The plates were then gently mixed on a 96-well plate adapted vortexer for 1 min. Absorbances at 540 nm and 450 nm were read with a microplate reader (Bio-Tek EL 1309; Bio-Tek Instruments, Inc. Winooski, Vt.). Absorbance values were expressed as percents of untreated controls and EC50 and IC50 values were calculated by regression analysis.

Hep-2 Cells [5] = assay: Neutral red uptake assay of cytotoxicity in HEp-2 cells; assay type: cell-based, human
Experimental: as §3, §5

RSV CH18537 (B) [6] = assay: CPE inhibition assay in HEp-2 cells, RSV strain CH18537; assay type: cell-based, Respiratory syncytial virus; settings: Table 12, CPE, once a day for two days
Experimental: as §1
(§6) In this series, MP351 was added once a day for two days with fresh medium

RSV Long (A) [7] = assay: CPE inhibition assay in HEp-2 cells, RSV strain Long; assay type: cell-based, Respiratory syncytial virus; settings: Table 12, CPE, once a day for two days
Experimental: as §1, §6

[8] = system: RSV 393 (clinical isolate); assay: CPE inhibition assay in HEp-2 cells, RSV 393; assay type: cell-based, Respiratory syncytial virus; settings: Table 12, CPE, once a day for two days
Experimental: as §1, §6

RSV CH18537 (B) [9] = assay: Neutral red uptake assay in HEp-2 cells, RSV strain CH18537; assay type: cell-based, Respiratory syncytial virus; settings: Table 12, neutral red, once a day for two days
Experimental: as §5, §6

RSV Long (A) [10] = assay: Neutral red uptake assay in HEp-2 cells, RSV strain Long; assay type: cell-based, Respiratory syncytial virus; settings: Table 12, neutral red, once a day for two days
Experimental: as §5, §6

[11] = system: RSV 393 (clinical isolate); assay: Neutral red uptake assay in HEp-2 cells, RSV 393; assay type: cell-based, Respiratory syncytial virus; settings: Table 12, neutral red, once a day for two days
Experimental: as §5, §6

RSV M2 RNA = assay: RT-PCR of M2 RNA from RSV-infected 9HTE cells; assay type: cell-based, Respiratory syncytial virus; settings: RNA at 8 h post-infection, M.O.I.=10
Experimental: To determine if RSV RNA levels correlated with antiviral activity, RT-PCR analysis was performed on RNA isolated from RSV-infected and uninfected 9HTE cells with and without treatment with spA4 -antiRSV3'3'T/(8281-8299) or spA4 -antiRSV3'3'A/(8530-8547). An M2 RNA sequence in RSV (from nucleotides 7879 to 8465) was converted to cDNA and amplified by PCR. M2 RNA from the RSV-infected cells produced an RT-PCR DNA product that was clearly visible. […] Levels of GAPDH transcripts were similar in all of these RNA preparations.
RNA was collected from 2×10^5 9HTE cells at 8 h post-infection (M.O.I.=10) by RNAzol treatment as described by the manufacturer (Tel-Test, Inc, Freindswood, Tex.). RNA was isolated after 8 h to limit RSV replication to a single cycle. Isolated RNA (≈1 μg) was incubated with 100 pmoles of the appropriate downstream (-) primer listed below or 100 pmoles of random hexamer (used for glyceraldehyde-3-phosphatedehydrogenase, GAPDH, mRNA only). RNA and primers were heated to 70° C. for 10 min then cooled rapidly on ice for 5 min. […]
25 μl Hot-Start upper buffer contained 5 U Taq DNA polymerase (GibcoBRL) and 1/10th of the cDNA from the RT reaction. […] Aliquots of the RT/PCR mixtures were analyzed on 1% agarose/TBE gels.

[12] = MA-104 cells, A2 strain RSV (Table 8), read-out: EC50 Concentration for 50% inhibition of virus replication
[13] = MA-104 cells (Table 8), read-out: IC50 Conc. for 50% cytotoxicity grade by morphological change
[14] = Table 8, text says HEP-2 cells, read-out: EC50 (inhibition of RSV replication)
[15] = Table 8, text says HEP-2 cells, read-out: IC50 (toxicity)
[16] = Table 11, neutral red, q.d. 3 days, HEp2

Substance: AsAsAsAATGGGGCAAAsTsAsA (AAAAATGGGGCAAATAA; antisense; DNA, linkages s3 o10 s3 (s phosphorothioate, o phosphodiester), methylation of C not given here) [MP320, gapmer antisense oligonucleotide, three thiophosphorylated linkages at both termini]
- EC50 (A2 strain RSV; [12]): 10000 nM
- IC50 (MA-104 cells; [13]): > 10000 nM

Substance: AsAsAsAsAsTsGsGsGsGsCsAsAsAsTsAsA (AAAAATGGGGCAAATAA; antisense; DNA, all phosphorothioate, methylation of C not given here) [MP273]
- EC50 (A2 strain RSV; [12]): 3000 nM
- EC50 (A2 strain RSV; [14]): 3000 nM
- IC50 (MA-104 cells; [13]): > 10000 nM
- IC50 (MA-104 cells; [15]): > 10000 nM

Substance: 2-5A-L2-AsAsAsAATGGGGCAAAsTsAsA [MP351]
- EC50 (A2 strain RSV; MA104 cells, CPE assay, added once or once daily for 2 days, read-out: EC50): 1000 nM
- EC50 (A2 strain RSV; [12]): 300 nM
- IC50 (MA-104 cells; [13]): > 10000 nM
- EC50 (RSV strain A2 [1]; virus yield reduced by 50%): 320 nM
- EC90 (RSV strain A2 [1]; virus yield reduced by 90%): 1000 nM
- EC50 (RSV strain A2 [2]): 40 nM
- IC50 (Hep-2 Cells [3]; Table 10, CPE, B.I.D. 2 days, HEp2): > 3200 nM
- IC50 (Hep-2 Cells [3]; Table 10, CPE, B.I.D. 3 days, HEp2): > 3200 nM
- IC50 (Hep-2 Cells [3]; Table 10, CPE, B.I.D. 4 days, HEp2): 3200 nM
- IC50 (Hep-2 Cells [3]; Table 10, CPE, q.d. 1 day (added along with virus, never replenished), HEp2): > 3200 nM
- IC50 (Hep-2 Cells [3]; Table 10, CPE, q.d. 3 days, HEp2): > 3200 nM
- IC50 (Hep-2 Cells [3]; Table 10, CPE, q.d. 4 days, HEp2): > 3200 nM
- IC50 (Hep-2 Cells [3]; Table 12, CPE, test with 393 (clinical isolate), HEp-2): > 3200 nM
- IC50 (Hep-2 Cells [3]; Table 12, CPE, test with CH18537 (B), HEp-2): > 3200 nM
- IC50 (Hep-2 Cells [3]; Table 12, CPE, test with Long (A), HEp-2): > 3200 nM
- IC50 (Hep-2 Cells [3]; Table 13, CPE, q.d., Day 0, HEp-2): > 3200 nM
- IC50 (Hep-2 Cells [3]; Table 13, CPE, q.d., Day 1, HEp-2): > 3200 nM
- IC50 (Hep-2 Cells [3]; Table 13, CPE, q.d., Day 2, HEp-2): 2200 nM
- EC50 (RSV strain A2 [4]; [16]): 50 nM
- EC50 (RSV strain A2 [4]; Table 13, neutral red, q.d., fresh compound up to Day 1 post infection, HEp-2): 320 nM
- IC50 (Hep-2 Cells [5]; Table 11, neutral red, B.I.D. 2 days, HEp2): 3200 nM
- IC50 (Hep-2 Cells [5]; Table 11, neutral red, B.I.D. 3 days, HEp2): > 3200 nM
- IC50 (Hep-2 Cells [5]; Table 11, neutral red, B.I.D. 4 days, HEp2): 3200 nM
- IC50 (Hep-2 Cells [5]; Table 11, neutral red, q.d. 1 day (added along with virus, never replenished), HEp2): > 3200 nM
- IC50 (Hep-2 Cells [5]; [16]): 2000 nM
- IC50 (Hep-2 Cells [5]; Table 11, neutral red, q.d. 4 days, HEp2): > 3200 nM
- IC50 (Hep-2 Cells [5]; Table 12, neutral red, test with 393 (clinical isolate), HEp-2): > 3200 nM
- IC50 (Hep-2 Cells [5]; Table 12, neutral red, test with CH18537 (B), HEp-2): 2400 nM
- IC50 (Hep-2 Cells [5]; Table 12, neutral red, test with Long (A), HEp-2): 2000 nM
- IC50 (Hep-2 Cells [5]; Table 13, neutral red, q.d., Day 0, HEp-2): > 3200 nM
- IC50 (Hep-2 Cells [5]; Table 13, neutral red, q.d., Day 1, HEp-2): > 3200 nM
- IC50 (Hep-2 Cells [5]; Table 13, neutral red, q.d., Day 2, HEp-2): 2200 nM
- EC50 (RSV CH18537 (B) [6]): 100 nM
- EC50 (RSV Long (A) [7]): 300 nM
- EC50 [8]: 300 nM
- EC50 (RSV CH18537 (B) [9]): 100 nM
- EC50 (RSV Long (A) [10]): 400 nM
- EC50 [11]: 1600 nM

Substance: spA2'p(A2'p)3 -[(Bu)p]2 -(5'cta tcg gtt aga taa ac3'-3'a5') [spA4-antiRSV3'-3'A/(8530-8547)]
- inhibition of levels of M2 RNA (RSV M2 RNA): 17%

Substance: AsTsAsAsGsGsGsGsAsAsCsAsTsAsAsAsA (ATAAGGGGAACATAAAA; antisense; DNA, all phosphorothioate, methylation of C not given here) [MP317, control all PS oligonucleotide that still contained the G quartet motif but otherwise scrambled]
- EC50 (A2 strain RSV; [12]): 1000 nM
- EC50 (A2 strain RSV; [14]): 1000 nM
- IC50 (MA-104 cells; [13]): 5000 nM
- IC50 (MA-104 cells; [15]): 5000 nM

Substance: GsAsAsGsAsCsAsGsAsAsTsAsAsGsAsTsA (GAAGACAGAATAAGATA; antisense; DNA, all phosphorothioate, methylation of C not given here) [MP318]
- EC50 (A2 strain RSV; [12]): 10000 nM
- EC50 (A2 strain RSV; [14]): 10000 nM
- IC50 (MA-104 cells; [13]): 8000 nM
- IC50 (MA-104 cells; [15]): 8000 nM
